Results on one compound are retold here after patent publication US12350269B2 (Alexion Pharmaceuticals, Inc., priority 2015, dated 2025).

Test systems include LY10; DLCL2; VAL; DHL8; TOLEDO; RCK8; LY7; DHL5; DHL10; LY18; LY1; DB; U2932; DHL6.
What all share (test): DLBCL cell line viability, CellTiter Glo
Common to all, as to format: cell-based
Holding throughout (conditions): read-out: IC50 of Kinase Inhibitor in CellTiter Glo Assay
In general terms: ATP-based viability assays read luminescence as a measure of living cells.

Structures are written as SMILES.

Procedure for DB: (§1) Each IC50 value is an average of at least four replicate experiments. Subsequent analysis using a FACS based caspase 3 cleavage detection kit (BD Biosciences) and Edu incorporation were performed.
Procedure for DHL10: as §1
Procedure for DHL5: as §1
Procedure for DHL6: as §1
Procedure for DHL8: as §1
Procedure for DLCL2: as §1
Procedure for LY10: as §1
Procedure for LY18: as §1
Procedure for LY7: as §1
Procedure for RCK8: as §1
Procedure for TOLEDO: as §1
Procedure for U2932: as §1
Procedure for VAL: as §1

Turning to `CC(C)(C)c1nc2c3cc[nH]c(=O)c3c3cc(F)ccc3c2[nH]1` [Pan-Jak], the 50% inhibitory concentration (IC50) – broadly, the concentration at which inhibition is half-maximal – with LY10 came out at 5.1 µM; in the assay with DLCL2, 42 µM; with VAL, 5.2 µM; with DHL8, 28 µM; in the assay on TOLEDO, 5.9 µM; with RCK8, 43 µM. Also, the IC50 with LY7 was 34 µM; with DHL5, 39 µM; in the assay on DHL10, 40 µM; in the assay on LY18 it was 0.8 µM; in the assay on LY1 it was 0.7 µM; in the assay on DB, 21.4 µM. The IC50 turned out to be 3.9 µM in the assay with U2932 and 2.63 µM in the assay with DHL6.
